Reference: patent US5486596A, “Analogues of 8-D-homoarginine vasopressin” (Ceskoslovenska akademie ved, priority 1989, dated 1996)
Like-named read-outs stand apart in the source and are kept apart here. Bridge positions count the residues as written; N and C are the ends. Square brackets hold non-standard residues; d marks the D form. Peptide text beside a SMILES is read from it. dPhe(4-Et) = CCc1ccc(C[C@@H](N)C(=O)O)cc1; dPhe(4-Me) = Cc1ccc(C[C@@H](N)C(=O)O)cc1; Phe(4-Et) = CCc1ccc(C[C@H](N)C(=O)O)cc1; Phe(4-Me) = Cc1ccc(C[C@H](N)C(=O)O)cc1; d(hArg) = N=C(N)NCCCC[C@@H](N)C(=O)O; Mpa = O=C(O)CCS

Columns and labels:
[1] = system: rats; details: for Uterotonic activity: agonistic activity, rat
[2] = system: despinalized male rats; details: for Pressoric activity: despinalized male rats
[3] = system: FVIII; assay: FVIII activity in squirrel monkeys (blood coagulation); format: in vivo; details: for FVIII/%: squirrel monkeys, saline control = 100% (basal value)
Description: (§1) Compounds of the present invention ware evaluated for their ability to affect blood coagulation and fibrinolytic properties. The compounds were compared with [8-D-argenine]deamino vasopressin in squirrel monkeys. The findings of dissociated blood coagulation/fibrinolytic properties and the inhibitory properties are new and surprising properties for the series of vasopressin derived peptides.

[4] = system: tPA; assay: tPA activity in squirrel monkeys (fibrinolytic properties); format: in vivo; details: for tPA/%: squirrel monkeys, saline control = 100% (basal value)
Description: as §1

[5] = system: rats; assay: antidiuretic activity according to Burn, dDAVP as standard; format: in vivo; details: rat, relative to the standard dDAVP
Description: The biological activity of the peptides was tested on rats, namely: the uterotonic activity (agonistic and antagonistic) according to the Holton's method (Holtdon, J.: Brit. J. Pharmacol., 3,328, 1960) modified by Munsick (Endocrinology, 66, 451, 1960), the inhibitory activity being expressed as pA2 (Eggen et al.: J. Gen. Physiol., 56, 250, 1970), the pressoric activity was determined on despinalized male rats according to Krejci et al. (Brit. J. Pharm. Chemother., 30, 497, 1967) and the antidiuretic activity according to Burn (Burn et al.: Biol. Stand. Oxford Univ. Press, London, 1950) with [deaminol, D-arginine^8 ]vasopressin (dDAVP) used as the standard.

[6] = inhibitory (antagonistic) activity expressed as pA2, rat
[7] = inhibitory activity expressed as pA2, despinalized male rats

Row | Molecule | Uterotonic activity, pA2 [1] | FVIII/% [3] [%] | tPA/% [4] [%] | Antidiuretic activity [5] | Uterotonic activity, pA2 [1, 6] | further results
1 | CCc1ccc(C[C@@H]2NC(=O)CCSSC[C@@H](C(=O)N3CCC[C@H]3C(=O)N[C@H](CCCCNC(=N)N)C(=O)NCC(N)=O)NC(=O)[C@H](CC(N)=O)NC(=O)[C@H](CCC(N)=O)NC(=O)[C@H](Cc3ccccc3)NC2=O)cc1 [VII, [Mpr^1, L-p-EtPhe^2, D--Har^8] vasopressin] ([Mpa][Phe(4-Et)]FQNCP[d(hArg)]G-NH2; disulfide 1-6) | 8.0 | – | – | – | – | Pressoric activity, pA2 ([2]; rat, in vivo): 6.2
2 | [8-D-arginine] deamino vasopressin | – | 149 | 138.9 | – | – | effect on expression of Factor VIII, in words ([3]; monkey, in vivo): increase; effect on expression of tPA, in words ([4]; monkey, in vivo): increase
3 | COc1ccc(C[C@@H]2NC(=O)[C@@H](N)CSSC[C@@H](C(=O)N3CCC[C@H]3C(=O)N[C@H](CCCCNC(=N)N)C(=O)NCC(N)=O)NC(=O)[C@H](CC(N)=O)NC(=O)[C@H](CCC(N)=O)NC(=O)[C@H](Cc3ccccc3)NC2=O)cc1 [I, [2-O-methyltyrosine, 8-D-homoarginine]vasopressin] | 7.7 | – | – | – | – | –
4 | COc1ccc(C[C@@H]2NC(=O)CCSSC[C@@H](C(=O)N3CCC[C@H]3C(=O)N[C@H](CCCCNC(=N)N)C(=O)NCC(N)=O)NC(=O)[C@H](CC(N)=O)NC(=O)[C@H](CCC(N)=O)NC(=O)[C@H](Cc3ccccc3)NC2=O)cc1 [VI, [1-mercaptopropionic acid, 2-O-methyltyrosine 8-D-homoarginine]vasopressin] | 8.1 | – | – | – | – | –
5 | [2-p-methyl-L-phenylalanine, 8-D-homoarginine]vasopressin [IV] | – | 85 | 77 | < 0.1 % dDAVP | 6.85 | Pressoric activity [2]: 0.04 IU/mg
6 | Cc1ccc(C[C@@H]2NC(=O)CCSSC[C@@H](C(=O)N3CCC[C@H]3C(=O)N[C@H](CCCCNC(=N)N)C(=O)NCC(N)=O)NC(=O)[C@H](CC(N)=O)NC(=O)[C@H](CCC(N)=O)NC(=O)[C@H](Cc3ccccc3)NC2=O)cc1 [IX, [Mpr^1, L-p-MePhe^2, D--Har^8] vasopressin] ([Mpa][Phe(4-Me)]FQNCP[d(hArg)]G-NH2; disulfide 1-6) | 8.38 | – | – | – | – | Pressoric activity, pA2 ([2]; rat, in vivo): 6.2
7 | [Mpr^1, D--Har^8 ] vasopressin [reference compound] | – | 127 | 88 | ~ 5 % dDAVP | – | Uterotonic activity [1]: 0.8 IU/mg; Pressoric activity [2]: 0.28 IU/mg
8 | [2-p-methyl-D-phenylalanine, 8-D-homoarginine]vasopressin | – | 55 | 65 | < 0.1 % dDAVP | 6.85 | Pressoric activity [2]: 0.04 IU/mg
9 | CCc1ccc(C[C@H]2NC(=O)CCSSC[C@@H](C(=O)N3CCC[C@H]3C(=O)N[C@H](CCCCNC(=N)N)C(=O)NCC(N)=O)NC(=O)[C@H](CC(N)=O)NC(=O)[C@H](CCC(N)=O)NC(=O)[C@H](Cc3ccccc3)NC2=O)cc1 [VIII, [Mpr^1, D-p-EtPhe^2, D--Har^8] vasopressin] ([Mpa][dPhe(4-Et)]FQNCP[d(hArg)]G-NH2; disulfide 1-6) | 8.63 | – | – | – | – | Pressoric activity, pA2 ([2]; rat, in vivo): 6.35
10 | [2-p-ethyl-D-phenylalanine, 8-D-homoarginine]vasopressin [III] | – | – | – | < 0.1 % dDAVP | 8.15 | Pressoric activity, pA2 [2, 7]: 6.5
11 | [D--Har^8 ] vasopressin [reference compound] | – | – | – | ~ 1 % dDAVP | – | Uterotonic activity [1]: 0.9 IU/mg
12 | Cc1ccc(C[C@H]2NC(=O)CCSSC[C@@H](C(=O)N3CCC[C@H]3C(=O)N[C@H](CCCCNC(=N)N)C(=O)NCC(N)=O)NC(=O)[C@H](CC(N)=O)NC(=O)[C@H](CCC(N)=O)NC(=O)[C@H](Cc3ccccc3)NC2=O)cc1 [X, [Mpr^1, D-p-MePhe^2, D--Har^8] vasopressin] ([Mpa][dPhe(4-Me)]FQNCP[d(hArg)]G-NH2; disulfide 1-6) | 8.68 | – | – | – | – | –
13 | [2-p-ethyl-L-phenylalanine, 8-D-homoarginine]vasopressin [II] | – | – | – | < 0.1 % dDAVP | 7.40 | Pressoric activity, pA2 [2, 7]: 6.5
